Results from patent US20260207640A1, “Polyphenolic Boronates and Use Thereof” (The Medical College of Wisconsin, Inc., priority 2022, published 2026).
“Also recorded” adds a separate entry of the source.

Legend:
[1] = test system: arginase-1 and NOS-2 (or iNOS); settings: cited from earlier work
[2] = test system: lung cancer (A549) cells; test: IncuCyte cell proliferation, lung cancer cells; format: cell-based, human; settings: comparison within pair
Protocol: (§1) FIGS. 2A-2C show effects of HNK and HNK-B on the proliferation of glioblastoma (U87MG), pancreatic cancer (MiaPaCa-2) cells, and lung cancer (A549) cells. The effects of HNK and HNK-B on the proliferation of U87MG (FIG. 2A), MiaPaCa-2 (FIG. 2B), or A549 (FIG. 2C) cells were monitored in the IncuCyte Live-Cell Analysis system. The IncuCyte analyzer provides real-time updates on cell confluence based on segmentation of high definition-phase contrast images. Representative cell images are shown as segmentation masks, illustrated when control cells reached 90% confluence (vertical solid line). The half maximal inhibitory concentration (IC50) values for U87MG (FIG. 2A), MiaPaCa-2 (FIG. 2B), or A549 (FIG. 2C) cells were determined at the point at which control cells reached ~90% confluence (vertical solid line). Relative cell confluence (control is taken as 100%) is plotted against concentration. Dashed lines represent the fitting curves used to determine the IC50 values as indicated. Data shown are the mean±standard deviation (SD).
(§2) The effects of Mito-HNK and Mito-HNK-B on the proliferation of U87MG (FIG. 3A), MiaPaCa-2 (FIG. 3B), or A549 (FIG. 3C) cells were monitored in the IncuCyte Live-Cell Analysis system. The IncuCyte analyzer provides real-time updates on cell confluence based on segmentation of high definition-phase contrast images. Representative cell images are shown as segmentation masks, illustrated when control cells reached 90% confluence (vertical solid line). The IC50 values for U87MG (FIG. 3A), MiaPaCa-2 (FIG. 3B), or A549 (FIG. 3C) cells were determined at the point at which control cells reached ~90% confluence (vertical solid line). Relative cell confluence (control is taken as 100%) is plotted against concentration. Dashed lines represent the fitting curves used to determine the IC50 values as indicated. Data shown are the mean±SD. […]

[3] = test system: glioblastoma (U87MG) cells; test: IncuCyte cell proliferation, glioblastoma cells; format: cell-based, human; settings: for antiproliferative effect, boronate versus non-boronated analog: comparison within pair (HNK/HNK-B, Mito-HNK/Mito-HNK-B, MGN/MGN-B, Mito-MGN/Mito-MGN-B)
Protocol: as §1
The effects of Mito-HNK and Mito-HNK-B on the proliferation of U87MG (FIG. 3A), MiaPaCa-2 (FIG. 3B), or A549 (FIG. 3C) cells were monitored in the IncuCyte Live-Cell Analysis system. The IncuCyte analyzer provides real-time updates on cell confluence based on segmentation of high definition-phase contrast images. Representative cell images are shown as segmentation masks, illustrated when control cells reached 90% confluence (vertical solid line). The IC50 values for U87MG (FIG. 3A), MiaPaCa-2 (FIG. 3B), or A549 (FIG. 3C) cells were determined at the point at which control cells reached ~90% confluence (vertical solid line). Relative cell confluence (control is taken as 100%) is plotted against concentration. Dashed lines represent the fitting curves used to determine the IC50 values as indicated. Data shown are the mean±SD.
FIGS. 4A-4B show effects of Mito-MGN, Mito-MGN-B, MGN, and MGN-B on the proliferation of glioblastoma cancer (U87MG) cells. The effects of Mito-MGN, Mito-MGN-B, MGN, and MGN-B on the proliferation of U87MG cells were monitored in the IncuCyte Live-Cell Analysis system. The IncuCyte analyzer provides real-time updates on cell confluence based on segmentation of high definition-phase contrast images. Representative cell images are shown as segmentation masks, illustrated in black when control cells reached 90% confluence. Full growth curves of Mito-MGN and Mito-MGN-B are shown in panel (FIG. 4A). The IC50 values were determined at the point at which control cells reached ~90% confluence. Relative cell confluence (control is taken as 100%) is plotted against concentration. Dashed lines in FIG. 4B represent the fitting curves used to determine the IC50 values as indicated for Mito-MGN and Mito-MGN-B (left panel) and for MGN and MGN-B (right panel). Data shown are the mean±SD.
(§3) The U87MG (ATCC Cat #HTB-14, human glioblastoma cancer cells), A549 (ATCC Cat #CCL-185, human lung cancer cells), and MiaPaCa-2 (ATCC Cat #CRL-1420, human pancreatic cancer cells) cell lines were purchased from the American Tissue Culture Collection (Manassas, VA, USA). The UACC-62 melanoma cell line was purchased from AddexBio (San Diego, CA; Cat #C0020003). All cell lines were regularly authenticated. All cell lines were grown at 37° C. in 5% carbon dioxide. The U87MG, A549, and UACC-62 cells were maintained in Roswell Park Memorial Institute Medium 1640 medium (Thermo Fisher Scientific, Waltham, MA, USA; Cat #11875) supplemented with 10% fetal bovine serum. MiaPaCa-2 cells were maintained in Dulbecco's Modified Eagle Medium (Thermo Fisher Scientific, Waltham, MA, USA; Cat #11965) and supplemented with 10% fetal bovine serum. All cells were stored in liquid nitrogen and used within 20 passages after thawing.
The IncuCyte Live-Cell Analysis System was used to continuously monitor cell proliferation, as described in earlier publications.

[4] = test system: pancreatic cancer (MiaPaCa-2) cells; test: IncuCyte cell proliferation, pancreatic cancer cells; format: cell-based, human; settings: comparison within pair
Protocol: as §1, §2

[5] = test system: melanoma (UACC-62) cells; test: IncuCyte cell proliferation, melanoma cells; format: cell-based; settings: dose-dependent
Protocol: FIGS. 5A-5B show effects of MGN and MGN-B on the proliferation of melanoma cancer (UACC-62) cells. The effects of MGN and MGN-B on the proliferation of UACC-62 cells were monitored in the IncuCyte Live-Cell Analysis system. The IncuCyte analyzer provides real-time updates on cell confluence based on segmentation of high definition-phase contrast images. The IC50 values were determined at the point at which control cells reached ~90% confluence. Relative cell confluence (control is taken as 100%) is plotted against concentration. Dashed lines in FIG. 5B represent the fitting curves used to determine the IC50 values as indicated for MGN and MGN-B. Data shown are the mean±SD.
as §3, with “MiaPaCa-2 cells were maintained in Dulbecco's Modified Eagle Medium (Thermo Fisher Scientific, Waltham, MA, USA; Cat #11965) and supplemented with 10% fetal bovine serum. All cells were stored in liquid nitrogen and used within 20 passages after thawing.” left out

[6] = test system: granulocytic-myeloid-derived suppressor cells (G-MDSCs) and regulatory T cells (Tregs); settings: cited from earlier work
[7] = Hydrolysis of pinacolate ester in aqueous phosphate buffer, HPLC; format: physicochemical; settings: upon dilution in aqueous phosphate buffer
Protocol: Stock solutions of HNK-B, HNK-B^2, and Mito-HNK-B were prepared in dimethyl sulfoxide at a 10 mM concentration and this solution was added directly to the buffer to obtain the desired concentration. […] Thus, the boronic acid species were tested with the oxidants. When studying HNK-B and Mito-HNK-B oxidations by HOCl, stock solutions (10 mM) in MeCN were added to the phosphate buffer (100 mM, pH 7.4) to obtain a final concentration of the probe of 500 μM. Dimethyl sulfoxide solvent was avoided due to known rapid quenching of HOCl by dimethyl sulfoxide.

[8] = Oxidation of boronates by ONOO−, HPLC; format: physicochemical; settings: in the presence of ONOO−
Protocol: (§4) All samples were incubated at room temperature in aqueous solution containing phosphate buffer (0.1 M, pH 7.4) and DTPA (10 μM). Absorption traces recorded using UV absorption detection at 260 nm.
(§5) High-performance liquid chromatography (HPLC) analysis was performed using an Agilent 1200 apparatus equipped with ultraviolet-visible spectroscopy absorption and a mass spectrometry detector (single quadrupole).
(§6) In the studies on the reaction profile of ONOO oxidation of Mito-HNK-B and derivatives, 2 μL of sample was injected into the HPLC system equipped with a C18 column (Phenomenex, Kinetex Evo, 100×2.1 mm, 1.7 μm) equilibrated with 5% MeCN containing 0.1% (v/v) formic acid. The compounds were separated by a linear increase in MeCN phase concentration from 5% to 100% over 8 min and until 15 min at 100% MeCN using a flow rate of 0.21 mL/min. The peak areas detected by monitoring the absorption at 260 nm were used for the quantitation.
(§7) The stock solutions of oxidants (HOCl and H2O2) were prepared freshly before each experiment; their concentrations were determined by spectrophotometry by reacting nitrite with H2O2, using the procedure described previously. […] Immediately prior to each experiment, the concentration of ONOO was determined spectrally at 302 nm (ε=1.7× 103 M^−1 cm^−1) after dilution in 0.1 M sodium hydroxide to ~10 mM concentration. […]

[9] = Oxidation of boronates by H2O2, HPLC; format: physicochemical
Protocol: as §4, §5, §6, §7

[10] = test system: kidney; settings: in vivo; cited from earlier work
[11] = not told; cited from earlier work
[12] = molecular target: T1, NOX2 (Homo sapiens, UniProt P04839); test: Oxidant formation from NOX2; settings: preliminary results
T1 sequence (P04839 2-570 limits assumed): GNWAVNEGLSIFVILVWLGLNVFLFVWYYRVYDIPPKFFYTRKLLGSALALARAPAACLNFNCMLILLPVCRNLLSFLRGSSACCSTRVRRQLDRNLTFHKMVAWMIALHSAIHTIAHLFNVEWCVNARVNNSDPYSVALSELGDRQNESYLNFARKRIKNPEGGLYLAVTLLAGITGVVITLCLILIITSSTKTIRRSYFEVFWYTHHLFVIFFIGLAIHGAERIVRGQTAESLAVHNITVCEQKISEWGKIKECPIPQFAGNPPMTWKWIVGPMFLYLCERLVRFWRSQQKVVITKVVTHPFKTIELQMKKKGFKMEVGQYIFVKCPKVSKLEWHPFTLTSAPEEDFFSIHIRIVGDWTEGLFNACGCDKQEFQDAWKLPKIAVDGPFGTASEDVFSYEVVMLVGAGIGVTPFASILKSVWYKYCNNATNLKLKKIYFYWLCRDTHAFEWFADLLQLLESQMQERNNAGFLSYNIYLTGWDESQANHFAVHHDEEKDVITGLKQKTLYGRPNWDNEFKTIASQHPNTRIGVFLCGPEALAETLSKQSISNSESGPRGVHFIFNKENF

[13] = test system: lung tumors; settings: mice xenografts; cited from earlier work

Question: With `NC(=O)c1c(COC(=O)c2ccccc2O)no[n+]1[O-]` [AT38, 3-(aminocarbonyl) furoxan-4-yl) methyl salicylate] as the molecule, how does the chemokine nitration [1] read?
Answer: mitigated chemokine nitration

Question: What about the “expression of arginase-1 and NOS-2 (or iNOS) in myeloid cells in the TME” value [1] of the same molecule?
Answer: inhibited the expression

Question: Which “antiproliferative effect, boronate versus non-boronated analog” value [2] does the source give for `C=CCc1ccc(O)c(-c2ccc(O)c(CC=C)c2)c1` [HNK, honokiol] here?
Answer: nearly the same

Question: And the “antiproliferative effect, boronate versus non-boronated analog” value [3]?
Answer: nearly the same

Question: What about the “antiproliferative effect, boronate versus non-boronated analog” value [4] of the same molecule?
Answer: nearly the same

Question: For `C=CCc1ccc(O)c(-c2cc(CC=C)ccc2O)c1` [MGN, magnolol], which effect on proliferation [5] is on record?
Answer: decreasing the proliferation

Question: Which results are given for `C=CCc1ccc(O)c(-c2cc(CC=C)ccc2OCc2ccc(B3OC(C)(C)C(C)(C)O3)cc2)c1` [MGN-B, Magnolol boronate]?
Answer: effect on proliferation [5]: decreasing the proliferation; antiproliferative effect, boronate versus non-boronated analog [3]: increased the potency

Question: For `O=C1C(OCCCCCCCCCC[P+](c2ccccc2)(c2ccccc2)c2ccccc2)=C(C2CCC(c3ccc(Cl)cc3)CC2)C(=O)c2ccccc21` (stereo not drawn) [Mito-ATO, Mitochondria-targeted atovaquone], which “G-MDSCs and Tregs in the TME” value ([6]; flow cytometry analysis) is on record?
Answer: significant decreases

Question: And the “T cell immune responses locally and in distant tumor sites” value ([6]; intratumoral injection into primary tumors, spontaneous tumor model)?
Answer: triggered potent T cell immune responses

Question: Which results are given for “Mitochondria-targeted honokiol boronate [Mito-HNK-B]”?
Answer: hydrolysis of pinacolate ester to the corresponding boronic acid [7]: fast hydrolysis; oxidation to HNK / Mito-HNK [8]: rapidly oxidized; conversion of boronate to parent polyphenol ([9]; at higher concentrations of H2O2): increased; conversion of boronate to parent polyphenol (HNK or Mito-HNK) ([9]; in the presence of H2O2 (500 μM), boronate 500 μM, phosphate buffer 0.1 M pH 7.4, room temperature): 37%; antiproliferative effect, boronate versus non-boronated analog [2]: nearly the same; antiproliferative effect, boronate versus non-boronated analog [3]: slightly more potent; also recorded: nearly the same; antiproliferative effect, boronate versus non-boronated analog [4]: nearly the same

Question: Which “antiproliferative potency of TPP+ conjugate compared with parent compounds MGN/MGN-B” value [3] does the source give for “Mitochondria-targeted magnolol boronate [Mito-MGN-B]” here?
Answer: increased their antiproliferative potencies

Question: And the “antiproliferative effect, boronate versus non-boronated analog” value [3]?
Answer: slightly more potent

Question: Which cisplatin-induced renal toxicity [10] does the source give for “mitochondria-targeted carboxy-proxyl [Mito-CP]” here?
Answer: inhibited cisplatin-induced renal toxicity

Question: For “mitochondria-targeted honokiol [Mito-HNK]”, which blood-brain-barrier permeability [11] is on record?
Answer: showed blood-brain-barrier permeability

Question: And the “antiproliferative effect, boronate versus non-boronated analog” value [2]?
Answer: nearly the same

Question: And the “oxidant formation from NOX2” value [12]?
Answer: inhibits oxidant formation

Question: What about the “antiproliferative effect, boronate versus non-boronated analog” value [3] of the same molecule?
Answer: nearly the same

Question: And the “metastasis of lung tumors to the brain” value [13]?
Answer: inhibited metastasis

Question: What about the “antiproliferative effect, boronate versus non-boronated analog” value [4] of the same molecule?
Answer: nearly the same

Question: With “mitochondria-targeted magnolol [Mito-MGN]” as the molecule, how does the “antiproliferative potency of TPP+ conjugate compared with parent compounds MGN/MGN-B” value [3] read?
Answer: increased their antiproliferative potencies
